This passage reports viability, T/C and IC50 results from PubChem BioAssay AID1963973 (Molecular Pharmacology Branch, DTP, NCI, 2024).

The test system of the experiment is 883617-216-R-J1-PDC tumor spheroids, viability. The experiment can be described thus: Anticancer human tumor 883617-216-R-J1-PDC patient-derived bladder carcinoma cell line growth inhibition [PI3K]. The note with it: spheroids with HUVEC and MSC; for viability, T/C: stronger effect = lower value. An excerpt:
Combinatorial screen of targeted agents with the PI3K inhibitors inavolisib, alpelisib, duvelisib, and copanlisib in multi-cell type tumor spheroids
A high-throughput screen of multi-cell type tumor spheroids was designed to identify active combinations of targeted small molecules and PI3K pathway inhibitors. Complex spheroids include a stromal component modeled by human endothelial cells (HUVEC) and fibroblasts modeled by human mesenchymal stem cells (MSCs). The concentration ranges selected for each drug and investigational agent were based upon clinically achievable concentrations if the clinical Cmax of the agent was known.
Compounds. The drugs and investigational agents: inavolisib (NSC800729), alpelisib (NSC765974), duvelisib (NSC772469), copanlisib (NSC816437), ipatasertib (NSC767898), afuresertib (NSC778305), talazoparib (NSC767125), sapanisertib (NSC764658), selumetinib (NSC741078), tovorafenib (DAY101, NSC766906), vemurafenib (NSC761431), ravoxertinib (NSC781343), sotorasib (NSC818433), MRTX1133 (NSC 836407), abemaciclib (NSC 768073), palbociclib (NSC758247), venetoclax (NSC 766270), SY5609 (NSC837396), enzalutamide (NSC755605), and darolutamide (NSC825331), were obtained from the National Cancer Institute (NCI) Developmental Therapeutics Program Chemical Repository. The FDA-approved anticancer drug set is available from the NCI Developmental Therapeutics Program. […] The stock solutions were prepared in dimethyl sulfoxide (DMSO, Sigma-Aldrich, St. Louis, MO, cat. D2650) at 800-fold the tested concentration and stored at -70 degrees C prior to their use. All drugs and investigational agents were tested over a range starting from a high concentration at or near the clinical Cmax and decreasing in half-log increments. If the clinical Cmax for an agent had not been determined, the highest concentration tested was 10 microM.
Cell Culture. All cells were maintained in an incubator at 37 degrees C and 5% CO2 with 95% humidity. The PDC lines were cultured according to standard operating procedures established by the NCI PDMR (https://pdmr.cancer.gov/sops/default.htm). All PDCs were thawed and cultured in Matrigel-coated flasks prepared with a working solution of 1X Ham's F-12 nutrient mix, without supplementation (Invitrogen, Waltham, MA, cat. 11765054), 100 U/mL penicillin-streptomycin (Invitrogen, cat. 15140122), and 2.5% Matrigel (Corning Inc., Corning, NY, cat. 354248) for the first three passages. The 354836-022-R-J1-PDC, 475296-252-R-J1-PDC, and 997726-040-R-J2-PDC lines were cultured in 6A media, which includes advanced DMEM/F-12 (Thermo Fisher Scientific, cat. 12634028), 10 mM HEPES (Thermo Fisher Scientific, cat. 15630080), 1X GlutaMAX supplement (Thermo Fisher Scientific, cat. 35050061), 0.1 mg/mL primocin (InvivoGen, San Diego, CA, cat. ant-pm-2), 10% defined fetal bovine serum, heat inactivated (HyClone Laboratories Inc., Logan, UT, cat. SH30070.03HI), 50% L-WRN conditioned media (ATCC, cat. CRL-3276), 1.25 mM N-Acetyl-L-cysteine (Sigma-Aldrich, cat. A9165), 10 mM nicotinamide (Sigma-Aldrich, cat. N0636), 1X B-27 supplement (Thermo Fisher Scientific, cat. 17504044), 1X N-2 supplement (Thermo Fisher Scientific, cat. 17502048), and 10 microM Y-27632 dihydrochloride (Tocris Bioscience, Bristol, United Kingdom, cat. 1254). The 624824-186-R-J2-PDC line was cultured in 6C/Colon 1B media, which includes all 6A media components plus 50 ng/mL human EGF recombinant protein (Thermo Fisher Scientific, cat. PHG0311). […]

Setting [1] is: compound alone, run of 04/24/2023.

Where “and” joins values, the source holds several entries; their conditions need not be identical. Equal values may be shown once.
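Also: spheroids exposed to agents for 7 days before the viability read.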

A word on the viability, T/C: it is the result in the treated group divided by that in the control group, in per cent. What is called IC50 is the concentration needed to halve the response being measured. Take `CC(=O)c1c(C)c2cnc(Nc3ccc(N4CCNCC4)cn3)nc2n(C2CCCC2)c1=O`: the viability, T/C by setting is: (compound 0.000316 µM) 109% [middle of 4 runs]; (compound 0.001 µM) 91.3% [middle of 4 runs]; (compound 0.00316 µM) 76.6% [middle of 4 runs]; (compound 0.01 µM) 87.7% [middle of 4 runs]; (compound 0.0316 µM) 71.2% [middle of 4 runs]; (compound 0.1 µM) 47.9% [middle of 4 runs]. Under “curve of compound”, the IC50 is 0.0985 µM and > 0.1 µM and 0.0797 µM.
On to `CC(C)NCC(C(=O)N1CCN(c2ncnc3c2C(C)CC3O)CC1)c1ccc(Cl)cc1` (stereo not given), for which the viability, T/C by setting is: (compound 0.0316 µM) 93.7% [middle of 4 runs]; (compound 0.1 µM) 77.3% [middle of 4 runs]; (compound 0.316 µM) 68.3% [middle of 4 runs]; (compound 1 µM) 40.5% [middle of 4 runs]; (compound 3.16 µM) 17.1% [middle of 4 runs]; (compound 10 µM) 7.67% [middle of 4 runs]. Also, the IC50 (curve of compound) is 591 nM [middle of 4 runs].
Regarding `CC(C)n1nc(-c2ccc3oc(N)nc3c2)c2c(N)ncnc21`, the viability, T/C is 95.2% [middle of 4 runs] (compound 0.000316 µM); 90.4% [middle of 4 runs] (compound 0.001 µM); 87.5% [middle of 4 runs] (compound 0.00316 µM); 73% [middle of 4 runs] (compound 0.01 µM); 47.2% [middle of 4 runs] (compound 0.0316 µM); 20.2% [middle of 4 runs] (compound 0.1 µM). Moreover, under “curve of compound”, the 50% inhibitory concentration (IC50) is 27.6 nM [middle of 4 runs].
On to `CC(Nc1ccc2c(c1)OCCn1cc(N3C(=O)OCC3C(F)F)nc1-2)C(N)=O` (stereo not given), for which the viability, T/C is 96.5% [middle of 8 runs] (compound 0.00316 µM); 91.7% [middle of 8 runs] (compound 0.01 µM); 71.5% [middle of 8 runs] (compound 0.0316 µM); 40.2% [middle of 8 runs] (compound 0.1 µM); 29.8% [middle of 8 runs] (compound 0.316 µM); 18.9% [middle of 8 runs] (compound 1 µM). Under setting [1], the IC50 is 72 nM [middle of 8 runs].
Regarding `CC(Nc1ncnc2nc[nH]c12)c1cc2cccc(Cl)c2c(=O)n1-c1ccccc1` (stereo not given), the viability, T/C is, setting by setting: (compound 0.0316 µM) 98.3% [middle of 8 runs]; (compound 0.1 µM) 95.9% [middle of 8 runs]; (compound 0.316 µM) 94.8% [middle of 8 runs]; (compound 1 µM) 85.6% [middle of 8 runs]; (compound 3.16 µM) 66.2% [middle of 8 runs]; (compound 10 µM) 50.7% [middle of 8 runs].
Take `CC1(C)CCC(CN2CCN(c3ccc(C(=O)NS(=O)(=O)c4ccc(NCC5CCOCC5)c([N+](=O)[O-])c4)c(Oc4cnc5[nH]ccc5c4)c3)CC2)=C(c2ccc(Cl)cc2)C1`: the viability, T/C runs as follows: (compound 0.0316 µM) 105% [middle of 4 runs]; (compound 1 µM) 94.3% [middle of 4 runs]; (compound 3.16 µM) 92.8% [middle of 4 runs]. In addition, where the note is “curve of compound”, the IC50 is > 10 µM and 5.36 µM and 5.66 µM.
With `CCCS(=O)(=O)Nc1ccc(F)c(C(=O)c2c[nH]c3ncc(-c4ccc(Cl)cc4)cc23)c1F`, the viability, T/C (compound 0.0316 µM) is 99.5% [middle of 4 runs]; the viability, T/C (compound 0.1 µM) is 98.2% [middle of 4 runs]; the viability, T/C (compound 0.316 µM) is 97% [middle of 4 runs]; the viability, T/C (compound 3.16 µM) was 73.8% [middle of 4 runs]; the viability, T/C (compound 10 µM) is 9.39% [middle of 4 runs]. Also, the half-maximal inhibitory concentration (IC50) (curve of compound) is 4.76 µM [middle of 4 runs].
Consider `CCN1CCN(Cc2ccc(Nc3ncc(F)c(-c4cc(F)c5nc(C)n(C(C)C)c5c4)n3)nc2)CC1`, for which the viability, T/C was 92% [middle of 4 runs] (compound 0.00316 µM); 78.9% [middle of 4 runs] (compound 0.01 µM); 75.5% [middle of 4 runs] (compound 0.0316 µM); 59% [middle of 4 runs] (compound 0.1 µM); 56.6% [middle of 4 runs] (compound 0.316 µM); 47.2% [middle of 4 runs] (compound 1 µM).
Turning to `CNC(=O)c1ccc(N2C(=S)N(c3ccc(C#N)c(C(F)(F)F)c3)C(=O)C2(C)C)cc1F`, the viability, T/C by setting is: (compound 0.0316 µM) 94.7% [middle of 4 runs]; (compound 0.316 µM) 99.7% [middle of 4 runs]; (compound 1 µM) 98.9% [middle of 4 runs]; (compound 3.16 µM) 101% [middle of 4 runs]. Besides, the IC50 (curve of compound) is over 10 µM.
As for `COc1c(OCCCN2CCOCC2)ccc2c3n(c(=NC(=O)c4cnc(N)nc4)nc12)CCN3`, the viability, T/C is, setting by setting: (compound 0.00316 µM) 93.8% [middle of 8 runs]; (compound 0.01 µM) 70.5% [middle of 8 runs]; (compound 0.0316 µM) 40% [middle of 8 runs]; (compound 0.1 µM) 15.4% [middle of 8 runs]; (compound 0.316 µM) 4.37% [middle of 7 runs]; (compound 1 µM) 3.24% [middle of 8 runs]. Where the note is “compound alone, run of 04/25/2023”, the IC50 is 20.7 nM [middle of 8 runs].
`Cc1nc(NC(=O)N2CCCC2C(N)=O)sc1-c1ccnc(C(C)(C)C(F)(F)F)c1` (stereo not given): the viability, T/C reads like this: (compound 0.0316 µM) 92.1% [middle of 8 runs]; (compound 0.1 µM) 74.7% [middle of 8 runs]; (compound 0.316 µM) 49.1% [middle of 8 runs]; (compound 1 µM) 28.3% [middle of 8 runs]; (compound 3.16 µM) 12.5% [middle of 8 runs]; (compound 10 µM) 7.52% [middle of 8 runs]. For the same molecule, the IC50 under setting [1] is 316 nM [middle of 8 runs].
Take `Cn1cnc2c(F)c(Nc3ccc(Br)cc3Cl)c(C(=O)NOCCO)cc21`: the viability, T/C (compound 0.00949 µM) was 73.6% [middle of 4 runs]; the viability, T/C (compound 0.03 µM) is 54.3% [middle of 4 runs]; the viability, T/C (compound 0.0949 µM) was 43.7% [middle of 4 runs]; the viability, T/C (compound 0.3 µM) was 32.2% [middle of 4 runs]; the viability, T/C (compound 0.949 µM) was 34.6% [middle of 4 runs]; the viability, T/C (compound 3 µM) is 20.2% [middle of 4 runs]. The IC50 (curve of compound) was 52.5 nM [middle of 4 runs].
Take `Cn1nccc1Nc1nccc(-c2ccn(C(CO)c3ccc(Cl)c(F)c3)c(=O)c2)n1` (stereo not given): the viability, T/C is, setting by setting: (compound 0.0316 µM) 93.7% [middle of 4 runs]; (compound 0.1 µM) 86.5% [middle of 4 runs]; (compound 0.316 µM) 87.2% [middle of 4 runs]; (compound 1 µM) 79.5% [middle of 4 runs]; (compound 3.16 µM) 65.8% [middle of 4 runs]; (compound 10 µM) 58.5% [middle of 4 runs]. Besides, the IC50 (curve of compound) is > 10 µM and 8.22 µM.
Turning to `Cn1ncnc1[C@H]1c2n[nH]c(=O)c3cc(F)cc(c23)N[C@@H]1c1ccc(F)cc1`, the viability, T/C is 92.5% [middle of 4 runs] (compound 0.000316 µM); 88.8% (2×) and 83.1% and 89.6% (compound 0.001 µM); 91.6% [middle of 4 runs] (compound 0.00316 µM); 84.4% [middle of 4 runs] (compound 0.01 µM); 75.7% [middle of 4 runs] (compound 0.0316 µM); 58.2% [middle of 4 runs] (compound 0.1 µM). In addition, the IC50 (curve of compound) is over 0.1 µM.
